Entries after “also recorded” stand apart in the source; their conditions may differ. Structures can show the parent of a compound that is named as a salt.
Tests used:
ΔF508-CFTR [1] = target: T1, ΔF508-CFTR (Mus musculus, UniProt P26361, DEL508-508); assay: salivary secretion assay in ΔF508-CFTR mice; assay type: in vivo
T1 construct: from tissue; host or cells: ileal mucosa of homozygous ΔF508 mice (A11 ex vivo, A12 after gavage); salivary secretion in the living mouse (A13)
Experimental: The procedure followed those recently described by Best & Quinton (Best and Quinton, 2005). Homozygous Δ508-CFTR mice (CFTR^tm1 Eur) and wild-type mice of the same strain were 10-12 weeks old and weighed 20-25 g. They were fed once a day by gavage with saline containing glafenine (50 mg/kg) or vehicle alone (0.1% DMSO) for 2 days. The mice were anaesthetized with ketamine and diazepam on the day of the experiment, then pretreated with a subcutaneous injection of 1 mM atropine into the left cheek. Small strips of Whatman filter paper were placed inside the previously injected cheek for ˜4 min to absorb any salivary secretions. A solution containing 100 μM isoprenaline and 1 mM atropine was then injected into the left cheek at the same site to induce secretion at time zero and the filter paper was replaced every minute for 30 minutes. Each piece of filter paper was immediately placed and sealed in a pre-weighed vial and the time of removal was recorded. The rate of salivary secretion per min and total amount were normalized to the mass of the mouse in grams.

ΔF508-CFTR [2] = target: ΔF508-CFTR (Homo sapiens, UniProt P13569, DEL508-508); assay: immunoblot and densitometry of mature band C, BHK cells expressing ΔF508-CFTR; assay type: cell-based; design: which was then ligated into full length pNUT-CFTR linearized using Hpa1 and Pml1; expressed in transfected cells; settings: 10 μM, 24 h
Chain of ΔF508-CFTR (Homo sapiens, UniProt P13569, DEL508-508) (P13569 with tags, fused parts or gaps DEL508-508): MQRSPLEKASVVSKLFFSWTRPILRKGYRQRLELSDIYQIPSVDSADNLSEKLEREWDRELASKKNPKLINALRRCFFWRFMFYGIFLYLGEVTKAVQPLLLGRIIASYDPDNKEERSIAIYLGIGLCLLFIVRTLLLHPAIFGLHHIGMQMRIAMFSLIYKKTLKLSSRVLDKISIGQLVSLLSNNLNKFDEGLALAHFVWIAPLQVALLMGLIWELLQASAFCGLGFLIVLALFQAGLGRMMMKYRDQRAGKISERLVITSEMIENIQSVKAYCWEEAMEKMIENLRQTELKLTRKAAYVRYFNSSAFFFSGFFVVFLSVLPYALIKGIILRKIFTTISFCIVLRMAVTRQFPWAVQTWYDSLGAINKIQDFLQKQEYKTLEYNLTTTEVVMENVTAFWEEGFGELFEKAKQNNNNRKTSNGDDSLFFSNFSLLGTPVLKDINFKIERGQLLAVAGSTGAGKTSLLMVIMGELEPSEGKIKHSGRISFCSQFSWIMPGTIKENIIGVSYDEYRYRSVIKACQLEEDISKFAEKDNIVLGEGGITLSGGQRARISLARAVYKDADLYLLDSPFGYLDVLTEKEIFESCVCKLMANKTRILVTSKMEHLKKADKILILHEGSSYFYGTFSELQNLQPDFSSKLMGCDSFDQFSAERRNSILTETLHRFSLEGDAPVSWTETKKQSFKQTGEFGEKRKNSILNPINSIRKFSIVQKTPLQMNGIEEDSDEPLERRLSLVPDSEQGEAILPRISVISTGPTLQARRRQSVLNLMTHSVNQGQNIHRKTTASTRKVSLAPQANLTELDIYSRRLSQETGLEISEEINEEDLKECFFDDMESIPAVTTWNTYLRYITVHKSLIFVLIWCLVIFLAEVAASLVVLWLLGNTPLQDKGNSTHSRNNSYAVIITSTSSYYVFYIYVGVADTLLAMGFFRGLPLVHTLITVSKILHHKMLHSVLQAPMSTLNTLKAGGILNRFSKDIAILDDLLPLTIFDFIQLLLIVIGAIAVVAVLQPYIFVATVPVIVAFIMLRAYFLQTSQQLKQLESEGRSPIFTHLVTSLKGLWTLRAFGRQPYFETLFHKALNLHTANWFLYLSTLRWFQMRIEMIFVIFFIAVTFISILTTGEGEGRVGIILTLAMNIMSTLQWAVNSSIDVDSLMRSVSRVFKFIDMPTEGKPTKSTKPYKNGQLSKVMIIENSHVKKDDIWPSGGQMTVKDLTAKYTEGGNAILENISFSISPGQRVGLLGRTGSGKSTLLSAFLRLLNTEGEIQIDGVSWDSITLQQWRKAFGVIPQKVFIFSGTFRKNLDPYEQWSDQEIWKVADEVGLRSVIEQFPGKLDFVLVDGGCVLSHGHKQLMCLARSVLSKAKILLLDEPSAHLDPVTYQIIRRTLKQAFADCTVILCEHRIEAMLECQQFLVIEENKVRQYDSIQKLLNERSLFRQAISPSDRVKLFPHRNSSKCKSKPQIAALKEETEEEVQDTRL
Experimental: Cell lysates were quantitated by Bradford assay (BioRad) and separated by SDS-PAGE (6% polyacrylamide gels) and analyzed by Western blotting. Western blots were blocked using 5% skimmed milk in PBS, then probed overnight at 4° C. with a primary anti-CFTR antibody at a dilution of 1:1000 monoclonal mouse antibody (clone M3A7, Chemicon). The blots were washed four times in PBS before the addition of the secondary HRP-conjugated anti-mouse antibody, at a dilution of 1:5000 (Amersham) for one hour at room temperature. The blots were washed five times in PBS and probed for chemiluminescence (Pierce). All samples were run with equal protein loading as determined using the Bradford assay (Biorad). Densitometry of the immunoblots was performed using the ImageJ program (National Institutes of Health).
Total protein was quantified in cell lysates using the Bradford assay (BioRad, Hercules, Calif.), separated using SDS-PAGE (6% polyacrylamide gels), and analyzed by Western blotting as described previously (Robert et al., 2007). Western blots were blocked with 5% skimmed milk in PBS and probed overnight at 4° C. with a monoclonal primary anti-CFTR antibody (clone M3A7, Chemicon, Temecula, Calif.) diluted 1:1000. The blots were washed four times in PBS before adding the secondary HRP-conjugated anti-mouse antibody at a dilution of 1:5000 (Amersham, Piscataway, N.J.) for one hour at room temperature, then washed again five times in PBS and visualized using chemiluminescence (Pierce, Rockford, Ill.). The relative intensity of each CFTR glycoform (band B or band C) was estimated by densitometry using the ImageJ software and reported as a percentage of the total CFTR in the same lane (i.e. B+C).

[3] = clinical use; cited from earlier work
F508del CFTR = target: T2, F508del CFTR (Homo sapiens, UniProt P13569, DEL508-508); assay: YFP fluorescence quenching functional assay (iodide influx), HEK293 cells with F508del CFTR and halide sensitive YFP; assay type: cell-based; settings: 10 μM, 24 h
T2 construct: expressed in transfected cells; host or cells: HEK293 Griptite cells stably expressing F508del CFTR, transiently transfected with halide-sensitive eYFP
T2 sequence (P13569 with tags, fused parts or gaps DEL508-508): as above
Summary of the method: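 HEK293 Griptite cells stably expressing F508del CFTR, transiently transfected with halide-sensitive eYFP, treated 24 h with 10 μM compound in triplicate, then stimulated 20 min with 25 μM forskolin, 45 μM IBMX and 50 μM genistein. YFP quench after 50 mM iodide imaged 15 times over 40 s on 150-300 cells/well.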

T1 sequence (P26361 with tags, fused parts or gaps DEL508-508): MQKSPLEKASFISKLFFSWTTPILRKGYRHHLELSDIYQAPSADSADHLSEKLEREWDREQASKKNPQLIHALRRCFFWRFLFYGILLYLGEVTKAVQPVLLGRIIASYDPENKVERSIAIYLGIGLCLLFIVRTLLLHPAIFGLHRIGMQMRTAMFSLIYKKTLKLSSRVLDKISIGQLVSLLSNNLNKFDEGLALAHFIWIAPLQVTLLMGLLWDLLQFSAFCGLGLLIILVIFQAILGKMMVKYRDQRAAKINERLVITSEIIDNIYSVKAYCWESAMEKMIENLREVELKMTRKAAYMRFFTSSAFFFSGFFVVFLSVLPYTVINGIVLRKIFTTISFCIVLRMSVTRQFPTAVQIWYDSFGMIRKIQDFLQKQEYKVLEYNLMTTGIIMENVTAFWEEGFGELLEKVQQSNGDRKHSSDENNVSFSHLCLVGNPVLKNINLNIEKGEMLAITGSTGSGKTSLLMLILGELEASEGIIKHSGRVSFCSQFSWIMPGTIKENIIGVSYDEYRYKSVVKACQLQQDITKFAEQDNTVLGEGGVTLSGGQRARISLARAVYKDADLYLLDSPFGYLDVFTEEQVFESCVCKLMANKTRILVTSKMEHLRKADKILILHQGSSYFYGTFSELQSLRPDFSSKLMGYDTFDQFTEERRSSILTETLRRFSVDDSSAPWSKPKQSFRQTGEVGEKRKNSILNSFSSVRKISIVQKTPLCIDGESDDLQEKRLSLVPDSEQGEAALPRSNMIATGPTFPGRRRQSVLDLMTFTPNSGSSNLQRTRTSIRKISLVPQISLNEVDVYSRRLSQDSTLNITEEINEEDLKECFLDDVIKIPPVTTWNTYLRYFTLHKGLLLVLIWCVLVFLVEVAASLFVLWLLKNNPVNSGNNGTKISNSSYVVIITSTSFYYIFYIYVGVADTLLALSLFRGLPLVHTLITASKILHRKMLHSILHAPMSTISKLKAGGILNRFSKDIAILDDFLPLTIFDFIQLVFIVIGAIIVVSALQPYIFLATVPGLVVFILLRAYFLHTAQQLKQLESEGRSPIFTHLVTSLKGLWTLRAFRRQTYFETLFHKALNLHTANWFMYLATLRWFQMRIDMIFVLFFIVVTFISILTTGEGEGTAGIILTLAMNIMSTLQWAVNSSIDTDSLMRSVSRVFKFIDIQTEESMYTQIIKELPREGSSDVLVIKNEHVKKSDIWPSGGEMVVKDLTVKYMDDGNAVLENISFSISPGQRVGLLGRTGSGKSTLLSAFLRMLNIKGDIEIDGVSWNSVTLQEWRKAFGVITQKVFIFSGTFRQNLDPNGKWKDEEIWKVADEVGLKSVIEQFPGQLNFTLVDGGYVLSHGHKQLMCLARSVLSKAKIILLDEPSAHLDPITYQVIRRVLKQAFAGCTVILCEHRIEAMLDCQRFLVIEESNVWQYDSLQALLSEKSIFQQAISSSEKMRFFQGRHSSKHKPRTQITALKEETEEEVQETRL

With `O=C(OCC(O)CO)c1ccccc1Nc1ccnc2cc(Cl)ccc12` (stereo not shown) [Glafenine hydrochloride, 2-[(7-chloro-4-quinolinyl)amino]benzoic acid 2,3-dihydroxypropyl ester] the “restored share of the total salivary response” value (ΔF508-CFTR [1]; 50 mg glafenine per kg) was 15%, the “maximum rate of saliva production relative to WT mice” value (ΔF508-CFTR [1]; 50 mg/kg by gavage, 2 days, isoprenaline with atropine, control CF mice 5%) was 15% and the “band C glycoform as share of the CFTR signal (band B+band C)” value (ΔF508-CFTR [2]) was “approximately 38%”. For the same molecule, the “increase of band C glycoform compared to untreated control” value (ΔF508-CFTR [2]) was 28.4%, the “concentration achieved clinically in plasma” value [3] was 10 µM and the “functional correction in YFP quenching assay” value (F508del CFTR) was “test positive in each case; also recorded: enhanced the cAMP-stimulated iodide influx”. For the same molecule, the remaining activity at 10 µM (F508del CFTR; HEK293, nc = 100% pc = 69.2, read-out: % YFP quench) was 80%.

Source: US20110009351A1, “SCREENING ASSAY TO IDENTIFY CORRECTORS OF PROTEIN TRAFFICKING DEFECTS” (Traffick Therepeutics Inc., priority 2007, published 2011)
